Test system: 677734-321-R-J1-PDC complex spheroid viability
Assay: Anticancer human tumor 677734-321-R-J1-PDC patient-derived soft tissue sarcoma cell line growth inhibition [POLQ]
Settings: for IC50: curve of first compound; for viability, T/C: stronger effect = lower value
Method in brief: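 Three-cell-type spheroids modelling solid tumor plus stroma served as the readout system; POL inhibitors were tested individually and in combination, concentration ranges set by clinical Cmax where known.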

[1] = second compound 0.0316 µM, first compound 0.0316 µM
[2] = second compound 0.0316 µM, first compound 0.1 µM
[3] = second compound 0.0316 µM, first compound 0.316 µM
[4] = second compound 0.0316 µM, first compound 1 µM
[5] = second compound 0.0316 µM, first compound 3.16 µM
[6] = second compound 0.0316 µM, first compound 10 µM
[7] = second compound 0.1 µM, first compound 0.0316 µM
[8] = second compound 0.1 µM, first compound 0.1 µM
[9] = second compound 0.1 µM, first compound 0.316 µM
[10] = second compound 0.1 µM, first compound 1 µM
[11] = second compound 0.1 µM, first compound 3.16 µM
[12] = second compound 0.1 µM, first compound 10 µM
[13] = second compound 0.316 µM, first compound 0.0316 µM
[14] = second compound 0.316 µM, first compound 0.1 µM
[15] = second compound 0.316 µM, first compound 0.316 µM
[16] = second compound 0.316 µM, first compound 1 µM
[17] = second compound 0.316 µM, first compound 3.16 µM
[18] = second compound 0.316 µM, first compound 10 µM
[19] = second compound 1 µM, first compound 0.0316 µM
[20] = second compound 1 µM, first compound 0.1 µM
[21] = second compound 1 µM, first compound 0.316 µM
[22] = second compound 1 µM, first compound 1 µM
[23] = second compound 1 µM, first compound 3.16 µM
[24] = second compound 1 µM, first compound 10 µM
[25] = second compound 3.16 µM, first compound 0.0316 µM
[26] = second compound 3.16 µM, first compound 0.1 µM
[27] = second compound 3.16 µM, first compound 0.316 µM
[28] = second compound 3.16 µM, first compound 1 µM
[29] = second compound 3.16 µM, first compound 3.16 µM
[30] = second compound 3.16 µM, first compound 10 µM
[31] = second compound 10 µM, first compound 0.0316 µM
[32] = second compound 10 µM, first compound 0.1 µM
[33] = second compound 10 µM, first compound 0.316 µM
[34] = second compound 10 µM, first compound 1 µM
[35] = second compound 10 µM, first compound 3.16 µM
[36] = second compound 10 µM, first compound 10 µM
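Also: spheroids exposed to compounds for one week.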
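For viability, T/C in this document: 100% = vehicle DMSO treated spheroids.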

`COc1ccc([C@@H](O)c2cc(-c3ncnc4cc(N5CCOCC5)ccc34)c(F)cc2Cl)nn1` + Cc1cccc(N(C)C(=O)C2C(O)CCN2c2nc(C)cc(C(F)(F)F)c2C#N)c1 showed an IC50 (second compound 0.0316 µM) of over 10000 nM, an IC50 (second compound 0.1 µM) of 9310 nM and an IC50 (second compound 0.316 µM) of 9220 nM. For the same compound, the IC50 (second compound 1 µM) was over 10000 nM, the IC50 (second compound 3.16 µM) was over 10000 nM and the IC50 (second compound 10 µM) was 7640 nM. The viability, T/C [1] was 109%, the viability, T/C [2] was 103% and the viability, T/C [3] was 96.2%. The viability, T/C [4] was 93.4%, the viability, T/C [5] was 74.9% and the viability, T/C [6] was 53.7%. The viability, T/C [7] was 99.3%, the viability, T/C [8] was 98.9% and the viability, T/C [9] was 95%. It also gave a viability, T/C [10] of 92.9%, a viability, T/C [11] of 79.4% and a viability, T/C [12] of 47.6%. For the same compound, the viability, T/C [13] was 105%, the viability, T/C [14] was 101% and the viability, T/C [15] was 93.8%. The viability, T/C [16] was 91.3%, the viability, T/C [17] was 77.4% and the viability, T/C [18] was 47.2%. It also gave a viability, T/C [19] of 107%, a viability, T/C [20] of 97.8% and a viability, T/C [21] of 92.7%. It also gave a viability, T/C [22] of 90.1%, a viability, T/C [23] of 81.2% and a viability, T/C [24] of 55.5%. It also gave a viability, T/C [25] of 102%, a viability, T/C [26] of 101% and a viability, T/C [27] of 90.8%. The viability, T/C [28] was 95.7%, the viability, T/C [29] was 68.7% and the viability, T/C [30] was 50.9%. The viability, T/C [31] was 102%, the viability, T/C [32] was 90.4% and the viability, T/C [33] was 94.6%. The viability, T/C [34] was 92.5%, the viability, T/C [35] was 69.7% and the viability, T/C [36] was 44%.

Work on `COc1cccc2c1C(=O)c1c(O)c3c(c(O)c1C2=O)CC(O)(C(=O)CO)CC3OC1CC(N)C(O)C(C)O1` (centres undefined) + Nc1ccc(C#CCN(C(=O)Cc2ncc(C(F)(F)F)cc2C(F)(F)F)c2ccc(F)cc2)nn1 yielded an IC50 (second compound 0.0316 µM) of 39.8 nM, an IC50 (second compound 0.1 µM) of 46.7 nM and an IC50 (second compound 0.316 µM) of 44.4 nM. It also gave an IC50 (second compound 1 µM) of 78.5 nM, an IC50 (second compound 3.16 µM) of 40.6 nM and an IC50 (second compound 10 µM) of 41 nM. For the same compound, the viability, T/C [1] was 55.1%, the viability, T/C [2] was 29.5% and the viability, T/C [3] was 4.74%. For the same compound, the viability, T/C [4] was 1.41%, the viability, T/C [5] was 1.65% and the viability, T/C [6] was 1.2%. It also gave a viability, T/C [7] of 61%, a viability, T/C [8] of 28.5% and a viability, T/C [9] of 4.99%. For the same compound, the viability, T/C [10] was 1.48%, the viability, T/C [11] was 1.35% and the viability, T/C [12] was 1.19%. The viability, T/C [13] was 58.5%, the viability, T/C [14] was 29.6% and the viability, T/C [15] was 6.1%. The viability, T/C [16] was 0.73%, the viability, T/C [17] was 2.36% and the viability, T/C [18] was 0.63%. It also gave a viability, T/C [19] of 60%, a viability, T/C [20] of 47.3% and a viability, T/C [21] of 4.86%. The viability, T/C [22] was 1.7%, the viability, T/C [23] was 1.58% and the viability, T/C [24] was 0.84%. The viability, T/C [25] was 58.1%, the viability, T/C [26] was 21.1% and the viability, T/C [27] was 4.68%. The viability, T/C [28] was 0.97%, the viability, T/C [29] was 1.23% and the viability, T/C [30] was 0.74%. For the same compound, the viability, T/C [31] was 57.3%, the viability, T/C [32] was 24.8% and the viability, T/C [33] was 4.54%. The viability, T/C [34] was 1.86%, the viability, T/C [35] was 2.02% and the viability, T/C [36] was 0.8%.
